Reference: patent publication US8349801B2, “Peptide ligands for G-protein coupled receptors” (priority 2006, dated 2013)
Read-outs that look alike come from different tables or passages of the source. Each block holds one compound with its values, some of them ahead of it. No end group written: not given here.

Tests used:
MrgX1 = target: T1, MrgX1 (Homo sapiens, UniProt Q96LB2); assay: Calcium flux in CHO-K1 cells co-transfected with MrgX1 and Gα16; type: cell-based; details: dose response 1-3000 nM
T1 construct: expressed in transfected cells; host or cells: CHO-K1 (ATCC-CCL-61), transient co-transfection
Method: (§1) The assay was carried out in CHO cells were transiently transfected with the GPCR of choice, by utilizing the promiscuous Gα16 to divert signaling to the Gq pathway, thus enabling readout of GPCR activation by testing for Calcium flux as described by Liu et al 2003 (Biomol Screen 8, 39-49).
(§2) All the peptides thus obtained were tested for their ability to change calcium flux in CHO—K1 cells (ATCC-CCL-61) transiently co-transfected with an expression vector containing the GPCR of choice and expression vector containing the Gα16 encoding cDNA. Expression constructs containing cDNA clones for MrgX1, MrgX2, Mas or FPRL1 were commercially obtained in one of the following expression vectors: pcDNA3.1, pCMV6, or MO2.
Transient transfections were performed using CHO—K1 cells as host cells. […]
On the day of the experiment, cells were loaded with Fluo4-NW (Invitrogen) according to the manufacturer's recommendation. Plates were loaded into a FlexStation™ (Molecular Devices) plate reader and fluorescence was monitored. Seventeen seconds following initiation of reading, cells were stimulated with the indicated agonist/compound at final concentration of 1 μM. […]
Based on dose response experiments, EC50 best fit values were calculated by non-linear regression of sigmoidal dose-response curves, using Prism version 4 (GraphPad Software Inc., San Diego, Calif.). […]

[1] = test system: Isoproterenol induced rats; assay: Cardiac remodeling induced by Isoproterenol; type: in vivo, Wistar rats; details: isoproterenol 2 mg/kg/day s.c. 7 days; peptides 1 ug/hour/Kg osmotic minipump; Losartan 1 mg/kg once a day by gavage
Method: The effect of the peptides […] (SEQ ID NO:10), […]-dimer ([…]) (SEQ ID […]), P33_V (SEQ ID NO:7), P33-dimer (P33_D) (SEQ ID NO:6) on cardiac remodeling, was tested by determining their effect on heart hypertrophy and fibrosis (deposition of collagen I, III, and fibronectin) induced by Isoproterenol. Losartan (an antagonist of the known angiotensin II receptor, AT1, Kucharewicz et al., 2002; Hypertension, (40): 774-779) was used as positive control. The negative control group was treated with vehicle only. Additional control groups included rats not-treated with isoproterenol which were treated with the peptides, with Losartan or with the vehicle. The analysis included determination of the left ventricle mass and morphometry. In addition, immunofuorescence analysis of fibronectin and collagens I and III deposition was performed by confocal microscopy. Animals Acclimatization: Male Wistar rats Age: 13-14 weeks (250 to 300 g) were maintained in the animal facilities for 7 days before the beginning of the experiment. The animals were exposed to a brightness circle of light-dark cycle of 12 hs (day-06:00 to 18:00; night-18:00 to 06:00), and the room temperature was kept at 23±2° C. Heart failure was induced by daily injections of isoproterenol (2 mg/kg/day, subcutaneously) during 7 days. […] Immunofluorescence-labeling and quantitative confocal microscopy was used to investigate the distribution and quantity of collagen types I, III and fibronectin present in the left ventricles. […] Optimal confocal settings (aperture, gain and laser power) were determined at the beginning of each imaging session and then held constant during the analysis of all the samples. […] For quantitative analysis of collagens I, III, and fibronectin, the ImageTool 2.0 image analysis program was used ([…].edu/[…]) to measure the fluorescence intensity in images randomly selected. […]

FPRL1 = target: T2, FPRL1 (Homo sapiens, UniProt P25090); assay: Calcium flux in CHO-K1 cells co-transfected with FPRL1 and Gα16; type: cell-based; parameters: expressed in transfected cells; host or cells: CHO-K1 (ATCC-CCL-61), transient co-transfection; details: for calcium flux, P58 and derivatives: dose response
T2 sequence (P25090 1-351): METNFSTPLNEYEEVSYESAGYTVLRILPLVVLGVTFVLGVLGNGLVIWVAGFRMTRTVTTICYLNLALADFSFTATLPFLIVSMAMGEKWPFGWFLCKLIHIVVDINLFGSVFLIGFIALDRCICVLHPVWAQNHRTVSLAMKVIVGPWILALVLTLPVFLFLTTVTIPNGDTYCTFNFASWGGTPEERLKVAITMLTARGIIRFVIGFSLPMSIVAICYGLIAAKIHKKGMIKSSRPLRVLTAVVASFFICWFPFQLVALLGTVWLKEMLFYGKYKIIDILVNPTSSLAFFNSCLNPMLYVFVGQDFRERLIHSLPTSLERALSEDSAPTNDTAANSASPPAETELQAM
Method: as §1, §2
(§3) Transient transfections were performed using CHO—K1 cells as host cells. Cells (12 million) were plated into T75 flasks on the day preceding transfection. Cells were transfected with the appropriate GPCR expression vector and with a vector expressing Gα16 using a lipid-based reagent, MTI, according to the manufacturer's recommendation. Cells were transfected for 5 hours, then re-plated into 96-well dishes (60,000 cells per well) and grown overnight.
(§4) On the day of the experiment, cells were loaded with Fluo4-NW (Invitrogen) according to the manufacturer's recommendation. Plates were loaded into a FlexStation™ (Molecular Devices) plate reader and fluorescence was monitored. Seventeen seconds following initiation of reading, cells were stimulated with the indicated agonist/compound at final concentration of 1 μM. Each 96 well plate contained cells transfected with one GPCR expression vector and each of the examined peptides was tested in triplicate.
(§5) We defined a hit as a peptide which elicited a clear and distinct increase in intracellular calcium that is clearly visible and statistically significant upon examination of the calcium trace for at least two repeats. The criterion for statistical significance was a p-value lower than 0.001 in a t-test comparing the levels of calcium before and after peptide addition.
(§6) Based on dose response experiments, EC50 best fit values were calculated by non-linear regression of sigmoidal dose-response curves, using Prism version 4 (GraphPad Software Inc., San Diego, Calif.). The formulae for the sigmoidal dose-response curves was defined as Y=Bottom+(Top−Bottom)/(1+10^ (LogEC50−X)*HillSlope))
The ability of Peptides to change calcium flux was examined in CHO—K1 cells co-transfected with FPRL1 and Gal 6.

MrgX2 = target: T3, MrgX2 (Homo sapiens, UniProt Q96LB1); assay: Calcium flux in CHO-K1 cells co-transfected with MrgX2 and Gα16; type: cell-based; details: for calcium flux relative to the negative control: 1 μM, about 20 to 90 seconds; for eliciting calcium flux compared to cortistatin-14: MrgX2-expressing cells, summary statement
T3 construct: expressed in transfected cells; host or cells: CHO-K1 (ATCC-CCL-61), transient co-transfection
T3 sequence (Q96LB1 1-330): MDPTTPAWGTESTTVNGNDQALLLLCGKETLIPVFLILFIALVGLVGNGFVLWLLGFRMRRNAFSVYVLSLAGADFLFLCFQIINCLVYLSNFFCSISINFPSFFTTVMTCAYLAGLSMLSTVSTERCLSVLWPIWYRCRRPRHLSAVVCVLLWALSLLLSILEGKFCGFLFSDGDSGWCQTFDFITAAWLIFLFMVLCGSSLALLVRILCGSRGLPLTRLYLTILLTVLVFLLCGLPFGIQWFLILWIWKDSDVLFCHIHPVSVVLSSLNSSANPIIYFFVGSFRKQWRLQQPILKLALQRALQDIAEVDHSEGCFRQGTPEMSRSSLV
Method: as §1, §2, §3, §4, §5, §6
The ability of Peptides to change calcium flux was examined in CHO—K1 cells co-transfected with MrgX2 and Gal 6.

[2] = test system: Zymosan-induced murine dorsal air pouch model; type: in vivo, mice; details: 4 h; for inhibition of zymosan-induced neutrophil (GR-1+) accumulation: FACS
Method: The anti-inflammatory activity of P58 shorter derivatives was tested in the same model of acute inflammation used in Example 6, the Zymosan-induced murine dorsal air pouch model.
Male out-bred Swiss albino mice were purchased from Harlan, UK (T.O. strain) and maintained on a standard chow pellet diet with tap water ad libitum and a 12:00 h light/dark cycle. All animals were housed for 7 days prior to experimentation to allow body weight to reach ˜25 g on the day of the experiment.
Drugs were stored at −20° C. and defrosted on the day of the experiment. Peptide P58 (SEQ ID NO:1) was provided lyophilized; it was taken back to room temperature and dissolved with sterile PBS before use to make an initial 1 mg/ml solution. Peptide P58-4 (SEQ ID NO:2) was provided lyophilized; it was taken back to room temperature and dissolved with sterile PBS before use to make an initial 327 μg/ml solution. Peptide P58-5 (SEQ ID NO:3) was provided lyophilized; it was taken back to room temperature and dissolved with sterile PBS before use to make an initial 476 μg/ml solution. Vehicle consisted of sterile pyrogen free PBS (Gibco, cat no. 14190-094). Once dissolved, peptides P58 (SEQ ID NO:1), P58-4 (SEQ ID NO:2) and P58-5 (SEQ ID NO:3) gave a clear solution. Drugs or vehicle were administered i.v. at a final volume of 200 μl in the doses described below.
Lavage fluids were kept all the time on ice, then used to determine the number of migrated leukocytes, by taking an aliquot (100 μl) and diluting it 1:10 in Turk's solution (0.01% crystal violet in 3% acetic acid). The samples were then vortexed and 10 μl of the stained cell solution were placed in a Neubauer haematocymometer. Differential cell count was done using a light microscope (Olympus B061). In view of their chromatic characteristics and their nucleus and cytoplasm appearance, polymorphonuclear leukocytes (PMN; >95% neutrophils) could be easily identified.
For FACS analyses, an aliquot of lavage fluid was stained with the PE-conjugated anti-GR-1 monoclonal antibody (1:100 dilution, eBiosciences; Cat 11-5931) to mark polymorphonuclear leukocytes. Staining was performed at 4° C. Flow cytometry was performed using FACScan analyser (Becton Dickinson, Cowley, UK) with air-cooled 100 mW argon laser tuned to 488 nm connected to an Apple Macintosh G3 computer running Cell Quest II software. Forward and sidescatter characteristics were initially used to distinguish between the three distinct cell populations (lymphocytes, monocytes and granulocytes). Cells positive for GR-1 were detected in the FL2 channel (wavelength of 548 nm). Data are expressed as percentage of positive cells (in relation to the specific mAb). Determination of positive and negative populations was performed based on the control staining with irrelevant IgG isotype (rat IgG2b) labelled with PE. Once determined, quadrants were rigorously maintained for all analyses.
Data are shown for single mice, and also shown as mean±S.E. of (n) mice per group. Statistical differences were determined by ANOVA, plus Student Newman Keuls test. A P value<0.05 was taken as significant.

T1 sequence (Q96LB2 whole entry): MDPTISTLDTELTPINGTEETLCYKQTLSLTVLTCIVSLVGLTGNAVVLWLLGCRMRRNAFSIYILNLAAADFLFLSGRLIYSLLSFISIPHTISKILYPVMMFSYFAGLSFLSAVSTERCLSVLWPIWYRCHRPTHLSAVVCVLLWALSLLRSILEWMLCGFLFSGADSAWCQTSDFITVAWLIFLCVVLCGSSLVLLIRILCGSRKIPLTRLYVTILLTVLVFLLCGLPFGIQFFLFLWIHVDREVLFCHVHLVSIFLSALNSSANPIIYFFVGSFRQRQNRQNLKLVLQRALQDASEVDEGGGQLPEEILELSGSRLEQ

Compound: CSCC[C@H](NC(=O)[C@H](Cc1ccccc1)NC(=O)CNC(=O)CNC(=O)[C@@H](N)Cc1ccc(O)cc1)C(=O)N[C@@H](CCCNC(=N)N)C(=O)N[C@@H](CCCNC(=N)N)C(=O)N[C@H](C(=O)NCC(=O)N[C@@H](CCCNC(=N)N)C(=O)N1CCC[C@H]1C(=O)N[C@@H](CCC(=O)O)C(=O)N[C@@H](Cc1c[nH]c2ccccc12)C(=O)N[C@@H](Cc1c[nH]c2ccccc12)C(=O)N[C@@H](CCSC)C(=O)N[C@@H](CC(=O)O)C(=O)N[C@@H](Cc1ccc(O)cc1)C(=O)N[C@@H](CCC(N)=O)C(=O)N[C@@H](CCCCN)C(=O)N[C@@H](CCCNC(=N)N)C(=O)N[C@@H](Cc1ccc(O)cc1)C(=O)NCC(=O)O)C(C)C [BAM22, reference compound]
- EC50 (MrgX1): ≥ 50 nM

Compound: CCCCc1nc(Cl)c(CO)n1Cc1ccc(-c2ccccc2-c2nn[nH]n2)cc1 [Losartan, reference compound]
- effect on Isoproterenol induced raise in the left ventricle to body mass ratio (LV/BW) [1]: did not have an effect

- calcium flux relative to the negative control (FPRL1; 1 μM, three wells, about 20 to 90 seconds): increased calcium flux
- calcium flux relative to the negative control (MrgX2): increased calcium flux
- eliciting calcium flux compared to cortistatin-14 (MrgX2): superior to cortistatin-14
Compound: AAQATGPLQDNELPGLDERPPRAHAQHFHKHQLWPSPFRALKPRP (listed as Homo sapiens) [Peptide P94]

- calcium flux relative to the negative control (MrgX2): increased calcium flux
- eliciting calcium flux compared to cortistatin-14 (MrgX2): superior to cortistatin-14
Compound: AHAQHFHKHQLWPSPFRALKPRP (listed as Homo sapiens) [Peptide 63]

- calcium flux, P58 and derivatives (FPRL1): elicited calcium flux
Compound: FTSWFM-amide (FTSWFM-NH2; listed as Homo sapiens) [P58—4]
- inhibition of leukocyte accumulation triggered by zymosan A ([2]; 20 nmole/mouse i.v.): 35%
- inhibition of leukocyte accumulation triggered by zymosan A ([2]; 80 nmole/mouse i.v.): 47%
- inhibition of zymosan-induced neutrophil (GR-1+) accumulation ([2]; 80 nmole/mouse i.v.): 49%

- EC50 (MrgX1): ≥ 300 nM
Compound: GIGSVWHWKHRVATRFTLPRFLQ [Peptide P60_S]

- calcium flux, P58 and derivatives (FPRL1): elicited calcium flux
Compound: LQKFTSWFM-amide (LQKFTSWFM-NH2; listed as Homo sapiens) [P58—5]
- inhibition of leukocyte accumulation triggered by zymosan A ([2]; 20 nmole/mouse i.v.): did not inhibit leukocyte migration
- inhibition of zymosan-induced neutrophil (GR-1+) accumulation ([2]; 20 nmole/mouse i.v.): weak effect
- inhibition of leukocyte accumulation triggered by zymosan A ([2]; 80 nmole/mouse i.v.): 29%
